The values below are quoted from earlier work in US20090254175A1, “Valved stent for chronic venous insufficiency” (priority 2008, published 2009).

On to `C[C@H](CCC(=O)O)[C@H]1CC[C@H]2[C@@H]3CC[C@@H]4C[C@H](O)CC[C@]4(C)[C@H]3C[C@H](O)[C@]12C` [Deoxycholic acid], for which the “solubility in acetic acid” value is “soluble” and the solubility in alcohol entry is given as “soluble”. Further, the “solubility in acetone and glacial acetic acid” value (acetone and glacial acetic acid, compared with alcohol) is reported as “to a lesser extent”. Moreover, the solubility in water result (water) is “sparingly soluble”.

Take `C[C@H](CCC(=O)O)[C@H]1CC[C@H]2[C@@H]3[C@@H](O)C[C@@H]4C[C@H](O)CC[C@]4(C)[C@H]3CC[C@]12C` [ursodeoxycholic acid, reference compound]: the “solubility in acetic acid” value is recorded as “soluble” and the solubility in alcohol result is listed as “soluble”.
